Changes are numbered by the printed parent chain.
Legend:
A286F TREK-1^CG* = target: T1, A286F TREK-1^CG* (Mus musculus, UniProt P97438, A301F/S146C); assay: TEVC in Xenopus oocytes, attenuated channels; assay type: cell-based; conditions: 20 μM; sequential addition of ML335, CAT335, BL-1249; 0 mV
T1 construct: expressed in transfected cells; host or cells: Xenopus laevis oocytes injected with mRNA
T1 sequence (P97438 1-411 isoform P97438-2 S131C/A286F): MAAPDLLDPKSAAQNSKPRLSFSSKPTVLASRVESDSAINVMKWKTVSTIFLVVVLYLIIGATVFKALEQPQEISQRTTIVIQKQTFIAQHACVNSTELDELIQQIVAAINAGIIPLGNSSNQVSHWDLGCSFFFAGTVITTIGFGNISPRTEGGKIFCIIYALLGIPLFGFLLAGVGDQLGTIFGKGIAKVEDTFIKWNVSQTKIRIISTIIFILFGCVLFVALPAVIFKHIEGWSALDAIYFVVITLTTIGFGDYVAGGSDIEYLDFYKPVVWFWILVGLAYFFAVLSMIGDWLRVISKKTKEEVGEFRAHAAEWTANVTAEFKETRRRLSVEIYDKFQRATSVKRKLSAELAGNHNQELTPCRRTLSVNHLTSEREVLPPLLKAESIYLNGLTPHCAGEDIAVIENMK
Text: (§1) Mouse K2P2.1 (TREK-1) (Genbank accession number: NP_034737.2), mouse K2P10.1 (TREK-2) (NM_001316665.1), mouse K2P4.1 (TRAAK) (NM_008431.3), human K2P4.1 (TRAAK) (NM_033310.2) and mouse K2P18.1(TRESK) (NM_207261.3) were used for this study. Point mutations were introduced by site-directed mutagenesis using custom primers and confirmed by sequencing before use. For studies using Xenopus oocytes, K2P channels were subcloned into a previously reported pGEMHE/pMO vector (46). For expression in HEK293 cells, mouse K2P2.1 (TREK-1) and mutants were expressed from a previously described pIRES2-EGFP vector in HEK293 cells (46,47). K2P2.1 (TREK-1) tandems were constructed by connecting the open reading frames for the individual subunits with a linker encoding the […] (SEQ ID NO: 19) sequence. Tandems used for HEK293 cells included an N-terminal HA tag ([…] (SEQ ID NO: 20)) on the first subunit.
(§2) Xenopus laevis oocytes were harvested according to UCSF IACUC Protocol AN129690 and digested using collagenase (Worthington Biochemical Corporation, #LS004183, 0.8-1.0 mg/mL) in Ca^21-free ND96 (96 mM NaCl, 2 mM KCl, 3.8 mM MgCl2, 5 mM HEPES pH 7.4) immediately post-harvest, as previously reported (31,33). Oocytes were maintained at 18° C. in ND96 (96 mM NaCl, 2 mM KCl, 1.8 mM CaCl2, 2 mM MgCl2, 5 mM HEPES pH 7.4) supplemented with antibiotics (100 units mL^−1 penicillin, 100 μg mL^−1 streptomycin, 50 μg mL^−1 gentimycin) and used for experiments within one week of harvest.
(§3) Defolliculated stage V-VI oocytes were microinjected with 0.5-36 ng mRNA and currents were recorded within 16-48 h hours of injection.
(§4) For recordings, oocytes were impaled with borosilicate recording microelectrodes (0.4-2.0 MΩ resistance) backfilled with 3 M KCl and were subjected to constant perfusion of ND96 at a rate of 3 ml min^−1. Recording solutions containing K2P activators were prepared immediately prior to use from DMSO stocks (20-100 mM), with final DMSO concentrations of 0.1%. Currents were evoked from a −80 mV holding potential followed by a 300 ms ramp from −150 mV to +50 mV. Data were recorded using a GeneClamp 500B amplifier (MDS Analytical Technologies) controlled by pCLAMP8 software (Molecular Devices), and digitized at 1 kHz using Digidata 1332 Å digitizer (MDS Analytical Technologies). For each recording, control solution (ND96) was perfused over a single oocyte until current was stable before switching to solutions containing the test compounds at various concentrations. Representative traces and dose response plots were generated in GraphPad Prism 9.

G171F TREK-1^CG* = target: T2, G171F TREK-1^CG* (Mus musculus, UniProt P97438, G186F/S146C); assay: TEVC in Xenopus oocytes, attenuated channels; assay type: cell-based; conditions: 20 μM; sequential addition of ML335, CAT335, BL-1249; 0 mV
T2 construct: expressed in transfected cells; host or cells: Xenopus laevis oocytes injected with mRNA
T2 sequence (P97438 1-411 isoform P97438-2 S131C/G171F): T1 sequence (P97438 1-411 isoform P97438-2 S131C/A286F) with G171F, F286A
Text: as §1, §2, §3, §4

| SMILES | Fold-activation (I activator/I control) (A286F TREK-1^CG*) | Fold-activation (I activator/I control) (G171F TREK-1^CG*) |
| --- | --- | --- |
| c1ccc(-c2nn[nH]n2)c(Nc2cccc3c2CCCC3)c1 [BL-1249, reference compound] | 53+5 fold | 62+3 fold |
| O=C(NCc1ccc(Cl)cc1Cl)c1ccc(N2C(=O)C=CC2=O)cc1 [CAT335] | 21±3 fold | 7.8±1.2 fold |
